# Test results: US20220162167A1, “SUBSTITUTED BICYCLIC AND TETRACYCLIC QUINONES AND USE THEREOF AS ANTI-CANCER AGENTS” (THE REGENTS OF THE UNIVERSITY OF MICHIGAN, priority 2019, published 2022)
# Columns and labels:
# Format in all cases: cell-based
# [1] = system: CCRF-CEM; experiment: NCI60 growth inhibition, CCRF-CEM; settings: Leukemia
# Procedure: (§1) Representative compounds were tested in 60 cell lines (NCI60) at the National Cancer Institute, Developmental Therapeutics Program.
# (§2) Representative compounds were tested in a panel of 60 cancer cells (NCI 60) at the National Cancer Institute. Growth inhibition are shown in table 2, table 3, table 4, table 5, and FIG. 1, FIG. 2, FIG. 3, FIG. 4, FIG. 5.
# [2] = system: HL-60(TB); experiment: NCI60 growth inhibition, HL-60(TB); settings: Leukemia
# Procedure: as §1, §2
# [3] = system: K-562; experiment: NCI60 growth inhibition, K-562; settings: Leukemia
# Procedure: as §1, §2
# [4] = system: MOLT-4; experiment: NCI60 growth inhibition, MOLT-4; settings: Leukemia
# Procedure: as §1, §2
# [5] = system: RPMI-8226; experiment: NCI60 growth inhibition, RPMI-8226; settings: Leukemia
# Procedure: as §1, §2
# [6] = system: SR; experiment: NCI60 growth inhibition, SR; settings: Leukemia
# Procedure: as §1, §2
# [7] = system: A549/ATCC; experiment: NCI60 growth inhibition, A549/ATCC; settings: Non-Small Cell Lung Cancer
# Procedure: as §1, §2
# [8] = system: EKVX; experiment: NCI60 growth inhibition, EKVX; settings: Non-Small Cell Lung Cancer
# Procedure: as §1, §2
# [9] = system: HOP-62; experiment: NCI60 growth inhibition, HOP-62; settings: Non-Small Cell Lung Cancer; also: test concentration or dose not given here
# Procedure: as §1, §2
# [10] = system: HOP-92; experiment: NCI60 growth inhibition, HOP-92; settings: Non-Small Cell Lung Cancer
# Procedure: as §1, §2
# [11] = system: NCI-H226; experiment: NCI60 growth inhibition, NCI-H226; settings: Non-Small Cell Lung Cancer; also: test concentration or dose not given here
# Procedure: as §1, §2
# [12] = system: NCI-H23; experiment: NCI60 growth inhibition, NCI-H23; settings: Non-Small Cell Lung Cancer
# Procedure: as §1, §2
# [13] = system: NCI-H322M; experiment: NCI60 growth inhibition, NCI-H322M; settings: Non-Small Cell Lung Cancer
# Procedure: as §1, §2
# [14] = system: NCI-H460; experiment: NCI60 growth inhibition, NCI-H460; settings: Non-Small Cell Lung Cancer
# Procedure: as §1, §2
# [15] = system: NCI-H522; experiment: NCI60 growth inhibition, NCI-H522; settings: Non-Small Cell Lung Cancer
# Procedure: as §1, §2
# [16] = system: COLO 205; experiment: NCI60 growth inhibition, COLO 205; settings: Colon Cancer
# Procedure: as §1, §2
# [17] = system: HCC-2998; experiment: NCI60 growth inhibition, HCC-2998; settings: Colon Cancer
# Procedure: as §1, §2
# [18] = system: HCT-116; experiment: NCI60 growth inhibition, HCT-116; settings: Colon Cancer
# Procedure: as §1, §2
# [19] = system: HCT-15; experiment: NCI60 growth inhibition, HCT-15; settings: Colon Cancer; also: test concentration or dose not given here
# Procedure: as §1, §2
# [20] = system: HT29; experiment: NCI60 growth inhibition, HT29; settings: Colon Cancer
# Procedure: as §1, §2
# [21] = system: KM12; experiment: NCI60 growth inhibition, KM12; settings: Colon Cancer; also: test concentration or dose not given here
# Procedure: as §1, §2
# [22] = system: SW-620; experiment: NCI60 growth inhibition, SW-620; settings: Colon Cancer; also: test concentration or dose not given here
# Procedure: as §1, §2
# [23] = system: SF-268; experiment: NCI60 growth inhibition, SF-268; settings: CNS Cancer; also: test concentration or dose not given here
# Procedure: as §1, §2
# [24] = system: SF-295; experiment: NCI60 growth inhibition, SF-295; settings: CNS Cancer; also: test concentration or dose not given here
# Procedure: as §1, §2
# [25] = system: SF-539; experiment: NCI60 growth inhibition, SF-539; settings: CNS Cancer
# Procedure: as §1, §2
# [26] = system: SNB-19; experiment: NCI60 growth inhibition, SNB-19; settings: CNS Cancer; also: test concentration or dose not given here
# Procedure: as §1, §2
# [27] = system: SNB-75; experiment: NCI60 growth inhibition, SNB-75; settings: CNS Cancer; also: test concentration or dose not given here
# Procedure: as §1, §2
# [28] = system: U251; experiment: NCI60 growth inhibition, U251; settings: CNS Cancer
# Procedure: as §1, §2
# [29] = system: LOX IMVI; experiment: NCI60 growth inhibition, LOX IMVI; settings: Melanoma
# Procedure: as §1, §2
# [30] = system: MALME-3M; experiment: NCI60 growth inhibition, MALME-3M; settings: Melanoma
# Procedure: as §1, §2
# [31] = system: M14; experiment: NCI60 growth inhibition, M14; settings: Melanoma
# Procedure: as §1, §2
# [32] = system: MDA-MB-435; experiment: NCI60 growth inhibition, MDA-MB-435; settings: Melanoma
# Procedure: as §1, §2
# [33] = system: SK-MEL-2; experiment: NCI60 growth inhibition, SK-MEL-2; settings: Melanoma; also: test concentration or dose not given here
# Procedure: as §1, §2
# [34] = system: SK-MEL-28; experiment: NCI60 growth inhibition, SK-MEL-28; settings: Melanoma
# Procedure: as §1, §2
# [35] = system: SK-MEL-5; experiment: NCI60 growth inhibition, SK-MEL-5; settings: Melanoma
# Procedure: as §1, §2
# [36] = system: UACC-257; experiment: NCI60 growth inhibition, UACC-257; settings: Melanoma; also: test concentration or dose not given here
# Procedure: as §1, §2
# [37] = system: UACC-62; experiment: NCI60 growth inhibition, UACC-62; settings: Melanoma; also: test concentration or dose not given here
# Procedure: as §1, §2
# [38] = system: IGROV1; experiment: NCI60 growth inhibition, IGROV1; settings: Ovarian Cancer
# Procedure: as §1, §2
# [39] = system: OVCAR-3; experiment: NCI60 growth inhibition, OVCAR-3; settings: Ovarian Cancer
# Procedure: as §1, §2
# [40] = system: OVCAR-4; experiment: NCI60 growth inhibition, OVCAR-4; settings: Ovarian Cancer; also: test concentration or dose not given here
# Procedure: as §1, §2
# [41] = system: OVCAR-5; experiment: NCI60 growth inhibition, OVCAR-5; settings: Ovarian Cancer
# Procedure: as §1, §2
# [42] = system: NCI/ADR-RES; experiment: NCI60 growth inhibition, NCI/ADR-RES; settings: Ovarian Cancer
# Procedure: as §1, §2
# [43] = system: SK-OV-3; experiment: NCI60 growth inhibition, SK-OV-3; settings: Ovarian Cancer
# Procedure: as §1, §2
# [44] = system: 786-0; experiment: NCI60 growth inhibition, 786-0; settings: Renal Cancer
# Procedure: as §1, §2
# [45] = system: A498; experiment: NCI60 growth inhibition, A498; settings: Renal Cancer; also: test concentration or dose not given here
# Procedure: as §1, §2
# [46] = system: ACHN; experiment: NCI60 growth inhibition, ACHN; settings: Renal Cancer
# Procedure: as §1, §2
# [47] = system: CAKI-1; experiment: NCI60 growth inhibition, CAKI-1; settings: Renal Cancer; also: test concentration or dose not given here
# Procedure: as §1, §2
# [48] = system: SN12C; experiment: NCI60 growth inhibition, SN12C; settings: Renal Cancer
# Procedure: as §1, §2
# [49] = system: TK-10; experiment: NCI60 growth inhibition, TK-10; settings: Renal Cancer
# Procedure: as §1, §2
# [50] = system: UO-31; experiment: NCI60 growth inhibition, UO-31; settings: Renal Cancer
# Procedure: as §1, §2
# [51] = system: PC-3; experiment: NCI60 growth inhibition, PC-3; settings: Prostate Cancer
# Procedure: as §1, §2
# [52] = system: DU-145; experiment: NCI60 growth inhibition, DU-145; settings: Prostate Cancer
# Procedure: as §1, §2
# [53] = system: MCF7; experiment: NCI60 growth inhibition, MCF7; settings: Breast Cancer
# Procedure: as §1, §2
# [54] = system: MDA-MB-231/ATCC; experiment: NCI60 growth inhibition, MDA-MB-231/ATCC; settings: Breast Cancer
# Procedure: as §1, §2
# [55] = system: HS 578T; experiment: NCI60 growth inhibition, HS 578T; settings: Breast Cancer
# Procedure: as §1, §2
# [56] = system: BT-549; experiment: NCI60 growth inhibition, BT-549; settings: Breast Cancer
# Procedure: as §1, §2
# [57] = system: T-47D; experiment: NCI60 growth inhibition, T-47D; settings: Breast Cancer
# Procedure: as §1, §2
# [58] = system: MDA-MB-468; experiment: NCI60 growth inhibition, MDA-MB-468; settings: Breast Cancer; also: test concentration or dose not given here
# Procedure: as §1, §2
smiles,measurement,setting,value
"CN1CCN(c2cc(F)c(NC3=C(Cl)C(=O)c4ncccc4C3=O)c(F)c2)CC1 [Compound 1, 7-chloro-6-((2,6-difluoro-4-(4-methylpiperazin-1-yl)phenyl)amino)quinoline-5,8-dione]",Growth inhibition (% control) GIPRCNT,[1],−18.2389 % control
same,Growth inhibition (% control) GIPRCNT,[2],−26.4294 % control
same,Growth inhibition (% control) GIPRCNT,[3],−0.8345 % control
same,Growth inhibition (% control) GIPRCNT,[4],−22.6883 % control
same,Growth inhibition (% control) GIPRCNT,[5],−20.7257 % control
same,Growth inhibition (% control) GIPRCNT,[6],−0.8134 % control
same,Growth inhibition (% control) GIPRCNT,[7],74.56 % control
same,Growth inhibition (% control) GIPRCNT,[8],−82.6636 % control
same,Growth inhibition (% control) GIPRCNT,[9],83.28 % control
same,Growth inhibition (% control) GIPRCNT,[10],−79.9407 % control
same,Growth inhibition (% control) GIPRCNT,[11],85.32 % control
same,Growth inhibition (% control) GIPRCNT,[12],−61.2055 % control
same,Growth inhibition (% control) GIPRCNT,[13],101.8249 % control
same,Growth inhibition (% control) GIPRCNT,[14],9.912 % control
same,Growth inhibition (% control) GIPRCNT,[15],−59.746 % control
same,Growth inhibition (% control) GIPRCNT,[16],33.98 % control
same,Growth inhibition (% control) GIPRCNT,[17],61.85 % control
same,Growth inhibition (% control) GIPRCNT,[18],−69.7462 % control
same,Growth inhibition (% control) GIPRCNT,[19],−8.531 % control
same,Growth inhibition (% control) GIPRCNT,[20],11.1525 % control
same,Growth inhibition (% control) GIPRCNT,[21],82.37 % control
same,Growth inhibition (% control) GIPRCNT,[22],−76.6429 % control
same,Growth inhibition (% control) GIPRCNT,[23],48.73 % control
same,Growth inhibition (% control) GIPRCNT,[24],78.81 % control
same,Growth inhibition (% control) GIPRCNT,[25],−25.0889 % control
same,Growth inhibition (% control) GIPRCNT,[26],96.33 % control
same,Growth inhibition (% control) GIPRCNT,[27],38.01 % control
same,Growth inhibition (% control) GIPRCNT,[28],−9.877 % control
same,Growth inhibition (% control) GIPRCNT,[29],−70.2674 % control
same,Growth inhibition (% control) GIPRCNT,[30],−96.0656 % control
same,Growth inhibition (% control) GIPRCNT,[31],−40.5376 % control
same,Growth inhibition (% control) GIPRCNT,[32],−75.7981 % control
same,Growth inhibition (% control) GIPRCNT,[33],−49.6035 % control
same,Growth inhibition (% control) GIPRCNT,[34],−55.0718 % control
same,Growth inhibition (% control) GIPRCNT,[35],−91.7268 % control
same,Growth inhibition (% control) GIPRCNT,[36],−62.2412 % control
same,Growth inhibition (% control) GIPRCNT,[37],−45.6278 % control
same,Growth inhibition (% control) GIPRCNT,[38],−90.4429 % control
same,Growth inhibition (% control) GIPRCNT,[39],−98.2241 % control
same,Growth inhibition (% control) GIPRCNT,[40],−99.2407 % control
same,Growth inhibition (% control) GIPRCNT,[41],−59.8079 % control
same,Growth inhibition (% control) GIPRCNT,[42],37.87 % control
same,Growth inhibition (% control) GIPRCNT,[43],82.67 % control
same,Growth inhibition (% control) GIPRCNT,[44],−72.0362 % control
same,Growth inhibition (% control) GIPRCNT,[45],80.11 % control
same,Growth inhibition (% control) GIPRCNT,[46],−93.058 % control
same,Growth inhibition (% control) GIPRCNT,[47],−85.6094 % control
same,Growth inhibition (% control) GIPRCNT,[48],−97.4828 % control
same,Growth inhibition (% control) GIPRCNT,[49],8.462 % control
same,Growth inhibition (% control) GIPRCNT,[50],−100 % control
same,Growth inhibition (% control) GIPRCNT,[51],11.83 % control
same,Growth inhibition (% control) GIPRCNT,[52],−67.5681 % control
same,Growth inhibition (% control) GIPRCNT,[53],−58.1831 % control
same,Growth inhibition (% control) GIPRCNT,[54],−31.9795 % control
same,Growth inhibition (% control) GIPRCNT,[55],−16.4793 % control
same,Growth inhibition (% control) GIPRCNT,[56],80.52 % control
same,Growth inhibition (% control) GIPRCNT,[57],−32.5382 % control
same,Growth inhibition (% control) GIPRCNT,[58],−73.911 % control
